We go through eight compounds from ChEMBL document CHEMBL1201862, “PubChem BioAssay data set” (2004).

Activity calls are given as the source filed them.

The nature of experiment [1]: Inhibition of T. cruzi Tulahuen strain amastigotes in L-6 muscle cells Measured in Cell-Based and Microorganism Combination System Using Plate Reader - 2138-03_Inhibitor_Dose_CherryPick_Activity. The class given is functional. The settings on record: Rattus norvegicus, L6.
Experiment [2] in a line: L6 myocyte viability loss – cell-based, plate reader, cherry-pick, cytotoxicity control, dose response (AID 651896). Type of experiment: functional.
The nature of experiment [3]: Inhibition of Plasmodium falciparum NF54 Measured in Cell-Based System Using Plate Reader - 2138-11_Inhibitor_Dose_CherryPick_Activity. The class given is functional.
A short description of experiment [4]: antileishmanial activity on axenic amastigotes – plate reader, cherry pick, dose response (AID 651891). Type of experiment: functional, cell-based. The settings on record: Leishmania donovani.
Experiment [5] can be described thus: mouse fibroblast viability loss – cell-based, cherry-pick samples, set 2, cytotoxicity control for T. cruzi growth inhibitor project, dose response (AID 651817). The class given is functional. To be noted: NIH3T3.
The nature of experiment [6]: intracellular Trypanosoma cruzi inhibitors in host cells – cell-based, plate reader, cherry-pick samples, set 3, dose response (AID 651818).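 Also: compounds incubated with infected cells for about four days.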 Type of experiment: functional.
Experiment [7] in a line: African trypanosome bloodstream form growth inhibition – STIB900 strain, plate reader, cherry pick, dose response (AID 651893). The class given is functional, cell-based, Trypanosoma brucei rhodesiense. The settings on record: Trypanosoma brucei.
Experiment [8] in a line: T. cruzi growth inhibition in host cells, dose response, cell-based, plate reader, dry powder, set 2 (AID 652275). Type of experiment: functional.
Experiment [9] in a line: Trypanosoma cruzi replication inhibitors in host cells – cell-based, plate reader, dry powder samples, dose response (AID 651845). Type of experiment: functional.
A short description of experiment [10]: anti-trypanosomal activity in BESM host cells – imaging, CA-I/72 strain, bovine embryo skeletal muscle, dry powder, dose response (AID 651885). Type of experiment: functional, cell-based.
Experiment [11] can be described thus: Late stage assay provider results from the probe development effort to identify inhibitors of the Plasmodium falciparum M18 Aspartyl Aminopeptidase (M18AAP): radiolabel-based cell-based dose response assay to identify compounds that inhibit P. falciparum growth in RBCs, Set 2.. Type of experiment: functional.
The nature of experiment [12]: A Cell-Based Confirmatory Screen for Compounds that Inhibit VEEV, TC-83 (5). Type of experiment: functional.
The test system of a further experiment is Vero. The experiment is described as follows: cells. The class given is functional. The settings on record: Chlorocebus sabaeus.
Experiment [13] can be described thus: reduction of Shn3 3'UTR-driven luciferase in osteoblasts – cell-based, Clone20 osteoblasts, firefly luciferase, cherry-picked, dose response (AID 624132).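 Also: firefly luciferase luminescence from reporter carrying the Shn3 3'UTR in osteoblasts.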 The class given is functional.
The nature of experiment [14]: non-specific 3'UTR reporter inhibition in Clone20-Shn3RL – cell-based, Renilla luciferase, cherry-picked, counter-screen for Shn3 inhibitor project, dose response (AID 624133). Type of experiment: functional. In general terms: Counterscreens check selectivity or assay interference.
Another experiment has as its target T1, Protein skinhead-1 (Caenorhabditis elegans, UniProt P34707).
T1 sequence (P34707 whole entry): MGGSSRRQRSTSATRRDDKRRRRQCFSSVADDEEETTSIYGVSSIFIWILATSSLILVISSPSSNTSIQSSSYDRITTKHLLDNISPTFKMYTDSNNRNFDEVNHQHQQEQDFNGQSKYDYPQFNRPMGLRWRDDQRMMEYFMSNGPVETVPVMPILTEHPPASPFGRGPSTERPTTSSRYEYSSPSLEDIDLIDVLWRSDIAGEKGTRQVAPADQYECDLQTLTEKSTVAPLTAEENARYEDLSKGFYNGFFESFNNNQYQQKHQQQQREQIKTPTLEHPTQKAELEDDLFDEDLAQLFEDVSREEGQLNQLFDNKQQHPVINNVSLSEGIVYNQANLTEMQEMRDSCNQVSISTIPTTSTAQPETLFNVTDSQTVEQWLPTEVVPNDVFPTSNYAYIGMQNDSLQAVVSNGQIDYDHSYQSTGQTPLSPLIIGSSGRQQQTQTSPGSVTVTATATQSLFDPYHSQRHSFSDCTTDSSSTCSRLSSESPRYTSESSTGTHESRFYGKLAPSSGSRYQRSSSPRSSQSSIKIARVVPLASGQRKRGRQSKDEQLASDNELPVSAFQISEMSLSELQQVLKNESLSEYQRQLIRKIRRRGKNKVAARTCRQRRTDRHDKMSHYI
The class given is functional.

Experiment [15] is described as follows: Shn3 3'UTR reporter signal decrease – cell-based, Clone20 osteoblasts, firefly luciferase, cherry-pick, set 2, Schnurri-3 inhibitor project, dose response (AID 720490).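 Also: actives lower the luminescence signal as inhibitors.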 The class given is functional.
Experiment [16] in a line: EF1alpha-driven Renilla reporter with control 3'UTR suppression – Clone20-Shn3RL cells, dual-Glo, cherry-pick, set 2, counter-screen for Shn3 3'UTR targeting project, dose response (AID 720724). The class given is functional, cell-based. The settings on record: Dual-Go Shn3RL.
Experiment [17] in a line: inhibitors of non-replicating M. tuberculosis, dose response, luciferase, dry powder (AID 651619). The class given is functional. To be noted: Mycobacterium tuberculosis.
Experiment [18] is described as follows: inhibitors of non-replicating M. tuberculosis, dose response, luciferase, dry powder (AID 651620). The class given is functional. To be noted: Mycobacterium tuberculosis.
The nature of experiment [19]: growth inhibition of replicating M. tuberculosis, dose response, counter-screen, dry powder, IC90 (AID 651617). Type of experiment: functional. To be noted: Mycobacterium tuberculosis.
The target in experiment [20] is Glutathione-S-transferase (Schistosoma japonicum, UniProt Q26513). The experiment is described as follows: GST-antibody interaction or FRET quenching – biochemical, TR-FRET, artefact control for Vif-APOBEC3G degradation inhibitor project, dose response (AID 1117362). The class given is functional.
Experiment [21] in a line: loss of viability in HepG2 cells – cell-based, CellTiter-Glo, cherry-picked, cytotoxicity control for Shn3 inhibitor project, dose response (AID 624134). The class given is functional. (In general: In ATP-based viability assays light output follows the ATP content of the culture.)
Experiment [22] in a line: blockers of HIV-1 envelope-mediated cell-cell fusion – cherry-pick, dose response (AID 652057). The class given is functional, cell-based.
For the next experiment, the target named is Galanin receptor type 3 (Homo sapiens, UniProt O60755). The experiment is described as follows: Fluorescence-based cell-based primary high throughput dose response assay to identify antagonists of the Galanin Receptor 3 (GalR3). The class given is functional.
Another experiment in a line: cells. Type of experiment: functional, cell-based. To be noted: HEK-CNG.
The nature of experiment [23]: blockers of HIV-1 ZM109 envelope-driven cell-cell fusion – HeLa effector, CEM target cells, luciferase, cherry-pick, dose response (AID 652058).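 Also: luciferase signal from HIV-1 Env mediated cell-cell fusion of effector and target cells.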 Type of experiment: functional, cell-based.
Experiment [24] is described as follows: off-target signal loss in HeLa-CEM21 co-culture – HeLa F-luc CTL cells, cherry-picked, counter-screen for HIV-1 Env fusion inhibitor project, dose response (AID 652040).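 Also: potency for signal decrease marking cytotoxic or nonspecific inhibition.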 The class given is functional, cell-based.
Experiment [25] can be described thus: HIV-1 AD8 envelope cell-cell fusion blockers – cherry-pick, dose response (AID 652062).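 Also: luciferase signal from cell-cell fusion driven by HIV-1 clade B AD8 Env; potency is for inhibitors of fusion seen as a drop in luminescence.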 Type of experiment: functional, cell-based.
Experiment [26] has as its target COUP transcription factor 2 (Homo sapiens, UniProt P24468). In words: Luminescence-based cell-based high throughput dose response assay to identify inhibitors of COUP-TFII (NR2F2). The class given is functional.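 Also: HEK293 cells transiently cotransfected with COUP-TFII expression vector and reporter; luciferase reporter luminescence driven by COUP-TFII from the pX2-168 reporter plasmid.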
The target of the next experiment is Transthyretin (Homo sapiens, UniProt P02766). In words: Luminescence-based cell-based high throughput dose response assay to identify activators of Transthyretin (TTR) transcription. Type of experiment: functional.

Sequence of Galanin receptor type 3 (O60755 whole entry): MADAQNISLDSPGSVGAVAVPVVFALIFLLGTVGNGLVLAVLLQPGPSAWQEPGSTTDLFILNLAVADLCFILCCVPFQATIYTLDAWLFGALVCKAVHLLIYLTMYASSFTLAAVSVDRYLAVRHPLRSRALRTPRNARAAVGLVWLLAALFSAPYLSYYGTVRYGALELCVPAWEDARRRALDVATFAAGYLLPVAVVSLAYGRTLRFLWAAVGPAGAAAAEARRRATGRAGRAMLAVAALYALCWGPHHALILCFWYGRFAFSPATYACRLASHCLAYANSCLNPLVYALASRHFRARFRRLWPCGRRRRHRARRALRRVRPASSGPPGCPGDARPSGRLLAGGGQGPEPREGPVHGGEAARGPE
Sequence of COUP transcription factor 2 (P24468 whole entry): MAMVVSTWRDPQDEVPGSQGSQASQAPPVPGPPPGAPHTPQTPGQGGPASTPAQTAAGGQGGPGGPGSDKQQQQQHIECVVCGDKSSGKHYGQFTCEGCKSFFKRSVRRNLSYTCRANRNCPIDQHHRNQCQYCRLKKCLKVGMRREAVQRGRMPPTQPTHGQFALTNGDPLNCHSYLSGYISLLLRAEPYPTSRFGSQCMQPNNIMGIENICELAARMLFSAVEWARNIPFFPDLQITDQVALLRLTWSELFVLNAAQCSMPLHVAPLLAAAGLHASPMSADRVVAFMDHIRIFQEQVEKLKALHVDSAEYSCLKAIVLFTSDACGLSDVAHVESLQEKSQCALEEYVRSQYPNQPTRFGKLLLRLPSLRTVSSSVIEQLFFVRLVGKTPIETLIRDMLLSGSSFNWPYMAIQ
Sequence of Glutathione-S-transferase (Q26513 whole entry): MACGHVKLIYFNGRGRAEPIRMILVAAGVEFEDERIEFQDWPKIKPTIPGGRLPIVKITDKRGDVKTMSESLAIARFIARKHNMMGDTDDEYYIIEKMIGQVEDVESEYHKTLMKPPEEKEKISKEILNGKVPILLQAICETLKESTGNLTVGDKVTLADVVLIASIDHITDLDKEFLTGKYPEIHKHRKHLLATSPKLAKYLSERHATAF

For orientation: IC50 means the point on the concentration scale where inhibition reaches its midpoint. A word on the AC50: it is the concentration giving half of the maximal activity seen. Consider `C[C@@H]1CN([C@H](C)CO)C(=O)c2cccc(NC(=O)c3ccncc3)c2O[C@H]1CN(C)Cc1ccc2c(c1)OCO2`, for which the IC50 in experiment [1] was 5.79 µM (inactive); in experiment [2] it was > 100 µM (inactive); in [3] it was 5.79 µM (inactive); in experiment [4], > 100 µM (inactive); in experiment [7] it was 6.86 µM (inactive); in experiment [10], 0.049 µM (active). For the same compound, the AC50 in experiment [5] is 39 µM (inactive); in experiment [6], 0.08 µM (active); in experiment [8], 0.0187 µM (active); in [9], 0.311 µM (active).

`COc1cc(Br)c(CCNc2c3ccccc3nc3ccccc23)cc1OC`: the IC50 in [11] is 0.3 µM (active).

Take `CCN1CCN(Cc2nc3ccc(I)cc3c(=O)n2-c2ccccc2)CC1`: the half-maximal inhibitory concentration (IC50) in experiment [12] is 17.1 µM (active).

Broadly, the CC50 is the concentration that lowers cell viability or growth by half. Turning to `O=C(CSc1c2c(nc3ccc(Cl)cc13)CCCC2)NCc1ccco1`, the CC50 in the experiment on Vero is > 25 µM (active). The AC50 in experiment [13] is 5.71 µM (active); in [14], 31.2 µM (active); in experiment [15], 8.55 µM (active); in experiment [16], 44.7 µM (active). For the same compound, the IC50 on Protein skinhead-1 was > 100 µM (inactive).

Usually IC90 stands for the concentration at which the effect reaches the 90% level. On to `Cc1ccc(-c2nnc(SCc3ccccn3)o2)cc1`, for which the concentration for an effect of 90% (IC90) in experiment [17] was 4 µM (active); in experiment [18], 4 µM (active); in experiment [19], 62 µM (active).

For the compound `Cn1cnnc1SC/C(O)=C(\C#N)c1nc2ccccc2[nH]1`, in experiment [20], the half-maximal inhibitory concentration (IC50) is > 100 µM (active).

Broadly, the EC50 is the concentration at which the effect is half-maximal. As for `c1ccc(CNc2ncnc3ccccc23)cc1`, the concentration at half-maximal activity (AC50) was 1.5 µM (active) in [13]; 5.24 µM (active) in experiment [21]; 18.9 µM (active) in experiment [14]; 10.7 µM (active) in experiment [22]; 3.66 µM (active) in experiment [23]; 15 µM (active) in experiment [24]. In addition, the concentration at half-maximal activity (AC50) in experiment [25] was 4.91 µM (active). Also, the 50% inhibitory concentration (IC50) at Galanin receptor type 3 is 1.25 µM (active); in experiment [26], 9.32 µM (active). The EC50 in “cells” is > 29.9 µM (inactive).

Take `Oc1cc(O)c2sc(Nc3ccc(Cl)c(F)c3)nc2n1`: at Transthyretin, the EC50 is > 167 µM (inactive).
